According to US20150289513A1, “USE OF A COMPOUND COMPRISING A POLYFLUOROBENZYL MOIETY AGAINST INSECTICIDE-RESISTANT PESTS” (priority 2012, published 2015):

Assays:
[1] = tested on: Anopheles funestus (metabolic-resistant strain FUMOZ-R); assay: Glazed tile contact test, knock-down; format: in vivo
Method: (§1) To produce a suitable preparation Transfluthrin was dissolved in acetone. The active compound solution was pipetted onto a glazed tile and, after drying, adult mosquitoes of the species: • Anopheles gambiae (target-site-resistant and metabolic-resistant strain: RSPH), • Anopheles gambiae (target-site-resitant and metabolic-resistant strain: Tiassalé), • Anopheles gambiae (tar et-site-resitant and metabolic-resistant strain: Akron), • Anopheles gambiae (target-site-resistant strain: VK7), and • Anopheles funestus (metabolic-resistant strain FUMOZ-R) were placed onto the treated tile (each strain was tested on separate tiles). The exposition time was 30 minutes.
(§2) 0.25 hours, 0.5 hours, 1 hour, 2 hour, 3 hour, 4 hour and 24 hours after contact to the treated surface, the knock-down proportion of the test animals in % was determined. Here, 100% (effect) means that all mosquitoes have been killed; 0% (effect) means that none of the mosquitoes have been killed.
(§3) Similarly as outlined in example 2 for Transfluthrin, Metofluthrin efficacy was assessed against • Anopheles gambiae (target-site-resistant and metabolic-resistant strain: RSPH), • Anopheles funestus (metabolic-resistant strain FUMOZ-R), and • Culex quinquefasciatus (metabolic-resistant to DDT; strain P00), with the results shown in Tables 10 to 12. 0.25 hours, 0.5 hours, 1 hour, 2 hour, 3 hour, 4 hour and 24 hours after contact to the treated surface, the knock-down proportion of the test animals in % is depicted in Tables 10 to 12. 100% (effect) means that all mosquitoes have been killed; 0% (effect) means that none of the mosquitoes have been killed.
(§4) Similarly as outlined in example 2 for Transfluthrin, Metofluthrin efficacy was assessed against • Anopheles gambiae (target-site-resistant and metabolic-resistant strain: RSPH), • Anopheles funestus (metabolic-resistant strain FUMOZ-R), and with the results shown in Tables […]. 0.25 hours, 0.5 hours, 1 hour, 2 hour and 3 hours after contact to the treated surface, the knock-down proportion of the test animals in % is depicted in Tables 13 to 14. 100% (effect) means that all mosquitoes have been killed; 0% (effect) means that none of the mosquitoes have been killed.

[2] = tested on: Anopheles gambiae (target-site-resistant and metabolic-resistant strain: RSPH); assay: Glazed tile contact test, knock-down; format: in vivo
Method: as §1, §2, §3, §4

## COCc1c(F)c(F)c(COC(=O)C2C(C=C(C)C#N)C2(C)C)c(F)c1F (centres unmarked) [Momfluorothrin, 2,3,5,6-Tetrafluoro-4-(methoxymethyl)benzyl 3-(2-cyano-1-propen-1-yl)-2,2-dimethylcyclopropanecarboxylate]
[1]; 1.6 g/ha, 0.25 h after contact
  Effect %: 0%
[1]; 1.6 g/ha, 0.5 h after contact
  Effect %: 0%
[1]; 1.6 g/ha, 1 h after contact
  Effect %: 0%
[1]; 1.6 g/ha, 2 h after contact
  Effect %: 10%
[1]; 1.6 g/ha, 3 h after contact
  Effect %: 20%
[1]; 40 g/ha, 0.25 h after contact
  Effect %: 100%
[1]; 40 g/ha, 0.5 h after contact
  Effect %: 100%
[1]; 40 g/ha, 1 h after contact
  Effect %: 100%
[1]; 40 g/ha, 2 h after contact
  Effect %: 90%
[1]; 40 g/ha, 3 h after contact
  Effect %: 100%
[2]; 1.6 g/ha, 0.25 h after contact
  Effect %: 10%
[2]; 1.6 g/ha, 0.5 h after contact
  Effect %: 7%
[2]; 1.6 g/ha, 1 h after contact
  Effect %: 35%
[2]; 1.6 g/ha, 2 h after contact
  Effect %: 14%
[2]; 1.6 g/ha, 3 h after contact
  Effect %: 14%
[2]; 40 g/ha, 0.25 h after contact
  Effect %: 100%
[2]; 40 g/ha, 0.5 h after contact
  Effect %: 100%
[2]; 40 g/ha, 1 h after contact
  Effect %: 100%
[2]; 40 g/ha, 2 h after contact
  Effect %: 100%
[2]; 40 g/ha, 3 h after contact
  Effect %: 100%
